Entries after “also recorded” stand apart in the source; their conditions may differ.
Experiments:
Format in all cases: cell-based
[1] = tested on: human PBMCs; assay: IL-1β release from human PBMCs (ELISA, Western blot)
Protocol: (§1) Bone marrow derived macrophages were generated as described (Severa, M et al. Journal of Biological Chemistry 281:26188-26195 (2006)). Human PBMCs were isolated by from whole blood of healthy volunteers by density gradient centrifugation. Lysis of red blood cells was performed using red blood cell lysis buffer (Sigma). Experiments in PBMCs and macrophages were carried out at a cell density of 2×10^6 cells/ml. All primary cells and cell lines except THP-1 cells were cultured in DMEM supplemented with L-glutamine, ciprofloxacin (Cellgro, Manassas, Va.) and 10% fetal calf serum (Hyclone, Logan, Utah). THP-1 cells were cultured in RPMI supplemented with 10% fetal calf serum (Hyclone), L-glutamine, sodium pyruvate (Cellgro), and ciprofloxacin. One day prior to stimulation, THP-1 cells were differentiated using 0.5 μM PMA for three hours, washed three times and plated for stimulation. All experiments that were performed for Western blot analysis were carried out in serum free DMEM medium. ATP stimulations were carried out at 5 mM one hour prior to harvesting supernatants.
(§2) Cell culture supernatants were assayed for IL-1β using ELISA kits from BD Biosciences (Franklin Lakes, NJ) according to the manufacturer's instructions. To measure intracellular IL-1β, cells were washed and subjected to three freeze thaw cycles in assay diluent.
Cell culture supernatants were precipitated by adding an equal volume of methanol and 0.25 volumes of chloroform, vortexed and centrifuged at 20.000×g for 10 min. The upper phase was discarded and 500 μl of methanol was added to the interphase. This mixture was centrifuged at 20.000×g for 10 min and the protein pellet dried at 55° C., resuspended in Laemmli buffer and boiled at 99° C. for 5 min. Samples were separated by SDS-PAGE (15%) and transferred onto nitrocellulose membranes. […]

[2] = tested on: mouse macrophages; assay: IL-1β release from LPS-primed mouse macrophages (bone marrow-derived, B6-MCLs), ELISA; conditions: LPS-primed B6-MCLs, cytochalasin D 30 min
Protocol: as §1
Immortalized macrophage cell lines were generated using the previously described J2 recombinant retrovirus (carrying v-myc and v-raf/mil oncogenes) (Roberson, S. M. & Walker, W. S. Cellular immunology 116:341-351 (1988)). Briefly, primary bone marrow cells were incubated in L929 conditioned medium for 3-4 days to induce macrophage differentiation. Subsequently, cells were infected with J2 recombinant retrovirus. Cells were maintained in culture for 3-6 months slowly weaning off the percentage of L929 supernatant until cells were growing in the absence of conditioned medium.
Macrophage phenotype was verified by surface marker expression for CD11b and F480 as well as a range of functional parameters, including responsiveness to TLR ligands and bacterial uptake. Macrophage cell lines from wild-type (C57BL6), NALP3- and ASC-deficient mice were generated and are referred to as B6-MCLs, NALP3 -MCLs and ASC-MCLs.
as §2
(§3) Stimulations were carried out in serum free DMEM medium. Microglial cells and macrophages were primed with 100 U/ml IFNγ (Griess assay, TNF ELISA, real-time quantitative PCR) or 100 ng/ml ultrapure LPS (IL-1β ELISA, FLICA, ASC-CFP microglia cell line assay, Western blot) 1-3 h prior to stimulation with Aβ, revAβ, zymosan, ATP or transfection with dAdT.

[3] = tested on: mouse macrophages; assay: Crystal uptake (phagocytosis) in mouse macrophages, confocal reflection microscopy; conditions: cytochalasin D 2.5 μM
From the text: Confocal reflection microscopy was combined with fluorescence microscopy on a Leica SP2 AOBS confocal laser scanning microscope. Reflection was captured by placing the detector channel directly over the wavelength of the selected laser channel for reflection light capture and the AOBS was set to allow 5-15% of laser light into the collection channel. Fluorescence was simultaneously captured by standard confocal imaging techniques.
To visualize the uptake of crystalline material in living cells, we devised a method to image crystals simultaneously with cellular components stained with fluorescent dyes (FIG. 8b). We used this method to study the uptake of crystals into mouse macrophages. […] The median length of silica Q6 crystals engulfed by phagocytosis was 1.65 μm (FIG. 3c).

[4] = tested on: mouse microglia; assay: IL-1β release from LPS-primed mouse microglia (ELISA)
Protocol: For primary cultures, bone marrow-derived macrophages and microglia were isolated as described^42,43 and cultured in DMEM supplemented with L-glutamine, ciprofloxacin (Cellgro, Manassas, Va.) and 10% fetal calf serum (Hyclone, Logan, Utah) Immortalized macrophage and microglial cell lines were generated using J2 recombinant retrovirus (carrying v-myc and v-raf oncogenes)^44,45. Briefly, primary bone marrow cells were incubated in L929 conditioned medium for 3-4 days to induce macrophage differentiation. Cells were then infected with J2 recombinant retrovirus and maintained in culture until cells were growing in the absence of conditioned medium. Similarly, primary mixed glial cultures were cultured until fully confluent. After two consecutive infections with J2 retrovirus, cells were maintained in normal medium until growth of microglial cells in colonies was observed. The semi-adherent colonies of microglial cells were washed off and cultured in new flasks. […] Microglial cell lines form wild type (C57/BL6), Caspase-1^−/− and IL-IR^−/− mice as well as macrophage cell lines from wild type (C57BL6), NALP3 -, IPAF- and ASC-deficient mice were generated and used for experiments as indicated.
as §3
(§4) Cell culture supernatants were assayed for IL-1β and TNFα using ELISA kits from R&D Systems (Minneapolis, Minn.) according to the manufacturer's instructions. Nitric oxide was measured by Griess reaction of nitrites accumulated in the supernatants using chemicals from Sigma.

[5] = tested on: mouse microglia; assay: Nitric oxide production by primed microglia (Griess reaction); conditions: primed immortalized microglia, 24 h
Protocol: as §3, §4

[6] = tested on: mouse microglia; assay: TNF-α release from primed microglia (ELISA); conditions: primed immortalized microglia, 24 h
Protocol: as §3, §4

[7] = human PBMCs pretreated with cytochalasin D
[8] = wild type immortalized microglia

Structure (SMILES) | IL-1β release after treatment with MSU or silica crystals, inhibitor pretreatment [1, 7] | IL-1β response to R-848 or ATP, inhibitor pretreatment [1, 7] | IL-1β response to ATP, inhibitor present [2] | IL-1β release after treatment with MSU or silica crystals, inhibitor present ([2]; MSU 250 μg/ml, silica 500 μg/ml) | phagocytosis of silica or MSU crystals by treated cells [3] | ATP-induced IL-1β release in presence of cytochalasin D [4, 8] | Aβ-induced IL-1β release in presence of cytochalasin D [4, 8] | IL-1β response to silica crystal treatment in presence of inhibitor ([1]; LPS-primed human PBMCs, silica crystals, z-YVAD, 6 h) | Aβ-induced NO production, inhibitor present [5] | Aβ-induced TNF-α release, inhibitor present [6] | ATP-induced IL-1β release in presence of caspase-1 inhibitor ([4]; primary microglia) | Aβ-induced IL-1β release in presence of caspase-1 inhibitor ([4]; primary microglia) | Aβ-induced IL-1β release in presence of caspase-1 inhibitor ([4]; wild type immortalized microglial cells, 6 h)
C=C1[C@@H](C)[C@H]2[C@H](Cc3ccccc3)NC(=O)[C@]23[C@H](OC(C)=O)/C=C/[C@@](C)(O)C(=O)[C@@H](C)C/C=C/[C@H]3[C@@H]1O [cytochalasin D] | completely abrogated | unaffected | unaffected | abrogated | failed to engulf | no effect; also recorded: not affected | strongly attenuated; also recorded: dose-dependently inhibited | – | – | – | – | – | –
COC(=O)C[C@H](NC(=O)[C@H](C)NC(=O)[C@@H](NC(=O)[C@H](Cc1ccc(O)cc1)NC(=O)OCc1ccccc1)C(C)C)C(=O)CF [z-YVAD, z-YVAD-fmk] | – | – | – | – | – | – | – | almost completely abolished | strongly and dose-dependently attenuated; also recorded: strongly inhibited | attenuated; also recorded: inhibited | also inhibited | dose-dependently reduced | dose-dependent inhibition; also recorded: significant attenuation
